Publication PMC4703387, “Identification of the Calmodulin-Binding Domains of Fas Death Receptor” (PLoS ONE, 2016)
Where no end group is shown, it is not given here.

What was measured:
[1] = biological target: T1, Ca^2+/CaM (Homo sapiens, UniProt P0DP23); test: Isothermal titration calorimetry (ITC), Ca^2+/CaM titrated into peptide; format: binding
T1 construct: made in house
Experimental: Thermodynamic parameters of Ca^2+/CaM binding to Fas-Pep1 and Fas-Pep2 peptides were determined using an Auto-iTC200 microcalorimeter (Malvern Instruments). […] Heat of reaction of Ca^2+/CaM was measured over 19 injections at 25°C for Fas-Pep1 or 35°C for Fas-Pep2. Heat of dilution was measured by titrating Ca^2+/CaM into buffer. Data analysis was performed using the Microcal Origin package (ver. 8.1). Baseline corrections were performed by subtracting heat of dilution from the raw Ca^2+/CaM-peptide titration data. Binding curves were analyzed and dissociation constants (Kd) were determined by nonlinear least-square fitting of the baseline-corrected data. The formula used to fit the data as one binding site is: ΔQ(i)=Q(i)+(dVi/Vo)[(Q(i)+Q(i−1))/2]–Q(i–1) where ΔQ(i) is the heat released at i^th injection, Q(i) is the total heat content of the solution, dVi is injection volume, and Vo is total volume. Three replicate titration experiments were typically performed for each peptide.
Although it is recognized that the most frequent mechanism of CaM binding to target proteins involves the hydrophobic surfaces on the N- and C-terminal lobes,[23] electrostatic interactions also contribute to the formation and stabilization of CaM-protein complexes since CaM is acidic and CaM-binding motifs are often basic.[44, 45] The thermodynamic parameters of binding and the relative contribution of hydrophobic vs. electrostatic factors are often assessed by ITC methods, yielding various parameters such as dissociation constant (Kd), stoichiometry (n), enthalpy change (ΔH°) and entropy change (ΔS°). The thermodynamic parameters of Ca^2+/CaM binding to Fas-Pep1 and Fas-Pep2 were assessed by ITC.

[2] = biological target: T2, Ca^2+/CaM-C (Homo sapiens, UniProt P0DP23); test: NMR titration (2D 1H-15N HSQC) of isolated C-terminal lobe; format: binding; settings: 1H-15N HSQC titration
T2 construct: ^15N-labled samples of the isolated Ca^2+/CaM-N and Ca^2+/CaM-C domains; made in house
Experimental: NMR data were collected at 35°C on a Bruker Avance II (700 MHz ^1H) spectrometer equipped with a cryogenic triple-resonance probe, processed with NMRPIPE [35] and analyzed with NMRVIEW [36] or CCPN Analysis. […] For signal assignments of the complexes, ^13C-, ^15N-, or ^13C-/^15N-labeled Ca^2+/CaM at ~400–500 μM was mixed with unlabeled Fas-Pep1 (in 100% DMSO-d6) or Fas-Pep2 at 1.5:1 peptide:Ca^2+/CaM. […] The backbone atom resonances of Ca^2+/CaM complexes with Fas-Pep1 and Fas-Pep2 were assigned using HNCA, HN(CO)CA, HNCACB, HNCO, HN(CO)CACB and ^15N-edited NOESY-HSQC and TOCSY-HSQC experiments. These experiments have been also collected on ^15N-, or ^13C-/^15N-labeled Fas-Pep2 in complex with unlabeled Ca^2+/CaM to confirm the α-helical character of Fas-Pep2 when bound to Ca^2+/CaM. […] Combined ^1H-^15N chemical shift changes were calculated as ΔδHN = [(ΔδH)^2+(ΔδN/5)^2]^1/2, where ΔδH and ΔδN are the ^1H and ^15N chemical shift changes, respectively. Kd values were calculated by non-linear least-square fitting algorithm in Origin software (OriginLab, Northampton, MA) using the equation: ΔδHN=ΔδHN^max((Kd+L0+P0)−((Kd+L0+P0)^2−4*P0*L0)^0.5)/(2*P0) where ΔδHN^max is the chemical shift change between complex and free protein, L0 total concentration of ligand, and P0 total concentration of protein. […]

[3] = biological target: T1, Ca^2+/CaM; test: NMR (HSQC, 3D 15N-edited HSQC-NOESY, TALOS+) of 15N-/13C-labeled Fas-Pep2; format: physicochemical
Experimental: NMR data were collected at 35°C on a Bruker Avance II (700 MHz ^1H) spectrometer equipped with a cryogenic triple-resonance probe, processed with NMRPIPE [35] and analyzed with NMRVIEW [36] or CCPN Analysis. […] For signal assignments of the complexes, ^13C-, ^15N-, or ^13C-/^15N-labeled Ca^2+/CaM at ~400–500 μM was mixed with unlabeled Fas-Pep1 (in 100% DMSO-d6) or Fas-Pep2 at 1.5:1 peptide:Ca^2+/CaM. […] The backbone atom resonances of Ca^2+/CaM complexes with Fas-Pep1 and Fas-Pep2 were assigned using HNCA, HN(CO)CA, HNCACB, HNCO, HN(CO)CACB and ^15N-edited NOESY-HSQC and TOCSY-HSQC experiments. These experiments have been also collected on ^15N-, or ^13C-/^15N-labeled Fas-Pep2 in complex with unlabeled Ca^2+/CaM to confirm the α-helical character of Fas-Pep2 when bound to Ca^2+/CaM. The chemical shifts of Ca^2+/CaM-bound Fas-Pep2 were used to predict its order parameters and secondary structure content in TALOS+.[38] Combined ^1H-^15N chemical shift changes were calculated as ΔδHN = [(ΔδH)^2+(ΔδN/5)^2]^1/2, where ΔδH and ΔδN are the ^1H and ^15N chemical shift changes, respectively. Kd values were calculated by non-linear least-square fitting algorithm in Origin software (OriginLab, Northampton, MA) using the equation: ΔδHN=ΔδHN^max((Kd+L0+P0)−((Kd+L0+P0)^2−4*P0*L0)^0.5)/(2*P0) where ΔδHN^max is the chemical shift change between complex and free protein, L0 total concentration of ligand, and P0 total concentration of protein.
Far-UV CD spectra of Ca^2+/CaM, Fas-Pep1, Fas-Pep2 and their complexes have been obtained to determine whether formation of the complexes induce any major changes in the secondary structures of the peptides and/or Ca^2+/CaM protein. […] The CD spectra of the complexes are similar to those of Ca^2+/CaM with features distinctive of an α-helical type. Relatively minor changes are observed in the CD signal of Ca^2+/CaM upon binding to FasDD peptides. […] Induction of the α-helical character of Fas-Pep2 upon binding to Ca^2+/CaM has been confirmed by NMR spectroscopy. […]

[4] = biological target: T1, Ca^2+/CaM; test: Gel filtration assay of Ca^2+/CaM-peptide complexes; format: binding; settings: HiLoad Superdex 75 (10/300 GL), 50 mM Tris (pH 7.0), 100 mM NaCl, 5 mM CaCl2
Experimental: The mobility of Ca^2+/CaM complexes with Fas-Pep1 and Fas-Pep2 was analyzed by a gel filtration assay. […] Protein fractions were analyzed by SDS-PAGE. A low molecular weight calibration kit (GE Healthcare) was used to determine the approximate molecular weight of complexes.
Fas-Pep2 has been expressed and purified as a fusion protein with SUMO (see Materials and Methods). Because of some technical difficulties during purification of a recombinant peptide, a synthetic Fas-Pep1 was used in this study. The solution properties of Fas-Pep1 and Fas-Pep2 and their complexes with Ca^2+/CaM were initially analyzed with size exclusion chromatography assay. Samples were run on a size exclusion column (Superdex 75) under identical buffer conditions. Sample concentrations were at ~50–100 μM. […] Ca^2+/CaM complexes with Fas-Pep1 and Fas-Pep2 prepared at 1:1 stoichiometry eluted at 11.3 and 11.2 mL, respectively (Fig 3A). […] The formation of complexes was confirmed by SDS-PAGE (Fig 3B). […] As we and others have shown previously, Ca^2+/CaM elutes at a smaller than expected volume due to its elongated dumbbell shape.[32, 42, 43]

[5] = as Kd (ITC), 25°C Fas-Pep1, 35°C Fas-Pep2

## VQDTAEQKVQLLRNWHQLHGKKEAYDTLIKDLKKANLC [Fas-Pep2]
[1]; ITC
  thermodynamic driving force of binding: enthalpically driven
[1]; as Kd (ITC)
  n (stoichiometry, ITC): 0.9
[1]; [5]
  ΔH°: -14.2 kcal/mol
  ΔS°: -18.8 cal/mol/K
[2]
  CSPs on Ca^2+/CaM-C: significant CSPs for numerous residues
[3]; 3D 15N-edited HSQC-NOESY
  conformation when bound to Ca^2+/CaM (NOESY): adopts an α-helical conformation upon binding to CaM
[3]; 15N-Fas-Pep2, 1H-15N HSQC, 35°C, pH 7.0
  conformation of free peptide (NMR): lack of ordered structure
[3]; prediction from measured chemical shifts
  conformation when bound to Ca^2+/CaM (chemical shift index, TALOS+): adopts an α-helical conformation upon binding to Ca^2+/CaM
[4]; ~50–100 μM
  elution volume, free: 15.2 mL
[4]; prepared at 1:1 stoichiometry
  elution volume of complex with Ca^2+/CaM: 11.2 mL
